Measured values reported in patent US5607962A, “Substituted indole derivatives” (Bayer Aktiengesellschaft, priority 1995, dated 1997).

System: smooth muscle cells
Experiment: Inhibition of the proliferation of smooth muscle cells (3H-thymidine incorporation)
Assay type: cell-based, pigs
Settings: Sus scrofa; smooth muscle cells from pig aortas; half-maximum inhibition of 3H-thymidine incorporation produced by 10% FCS
Description: Investigation of the inhibition of the proliferation of smooth muscle cells by the compounds according to the invention
To determine the antiproliferative action of the compounds, smooth muscle cells are used which have been obtained from the aortas of pigs by the media explant technique [R. Ross, J. Cell. Biol. 50, 172, 1971]. The cells are inoculated into suitable culture dishes, as a role 96-hole plates, and cultured at 37° C. for 2-3 days in medium 199 with 7.5% FCS and 7.5% NCS, 2 mM L-glutamine and 15 mM HEPES, pH 7.4 in 5% CO2. The cells are then synchronized by withdrawal of serum for 2-3 days and then stimulated to growth using serum or other factors. At the same time, test compounds are added. […] To determine the IC50 values, the active compound concentration is calculated at which sequential dilution of the active compound causes half-maximum inhibition of the thymidine incorporation produced by 10% FCS.

NC(=O)C(NC(=O)[C@@H]1CCCC[C@H]1c1ccc(Cc2c(-c3ccccc3)[nH]c3ccccc23)cc1)c1ccccc1 (stereo partly drawn) [Example 3, trans-2-[4-(2-Phenylindol-3-yl-methyl)phenyl]-cyclohexane-1-carbonyl(phenylglycinamido)amide]
IC50: 0.02 nM
